In publication PMC9502271, “An Investigation of the Anti-Depressive Properties of Phenylpropanoids and Flavonoids in Hemerocallis citrina Baroni” (Molecules, 2022):

How the values were obtained:
Type in all cases: in vivo, Male Sprague-Dawley (SD) rats
[1] = tested on: CUMS rats; experiment: Sucrose preference test (SPT) in CUMS rats; details: after five weeks of administration by gastric gavage, HFPE, HFFE 25 mg/kg, fluoxetine 10 mg/kg, model group 64.44%
Procedure: (§1) The Animal Ethics Committee of Shenyang Pharmaceutical University has approved all animal testing (no. SYPU-IACUC-S2021-03-03-202). Male Sprague-Dawley (SD) rats weighing 180–200 g were supplied by Central Animal House of Shenyang Pharmaceutical University (Shenyang, China). […] They were also provided water and a regular food. Before the actual trials start, the rats should acclimate to their new environment for seven days.
(§2) A baseline test was conducted as described below before grouping. Rats were divided into five groups of 10 depending on their weight and sucrose preference. The model group, fluoxetine (10 mg/kg) group, HFPE (25 mg/kg) group, and HFFE (25 mg/kg) group were the four treatment groups using CUMS procedures. An untouchable control group was used. Based on what had been reported in the pharmacological literature the HFPE and HFFE dosages were selected. Two hours before to the daily CUMS procedure and behavioral testing, the rats received the appropriate solutions. […]
(§3) Body weights were recorded every week. […]
The SPT is used to evaluate rodent behavior associated with a human clinical symptom of depression by evaluating the capacity to seek pleasure. […] After that, the amount of liquids consumed was recorded. […]

[2] = tested on: TNF-α; experiment: TNF-α level in hippocampus of CUMS rats, ELISA; details: after 5 weeks of therapy, HFPE, HFFE 25 mg/kg, fluoxetine 10 mg/kg
Procedure: as §1, §2
(§4) The serum and hippocampal tissue of rats were taken. […] The optical density value was calculated after the reaction by setting the microtiter plate at 450 nm. The amount of CORT in the serum and the amounts of IL-6, IL-1β, and TNF-α in the hippocampus tissue were calculated using the standard curve.

[3] = tested on: CUMS rats; experiment: Forced swimming test (FST) in CUMS rats; details: HFPE, HFFE 25 mg/kg, fluoxetine 10 mg/kg, compared with CUMS model group
Procedure: as §1
as §2, with “solutions. All of the medications were administered through gastric gavage at a volume of 3 mL/kg of body weight and dissolved in sodium carboxymethylcellulose (CMC-Na) at a concentration of 0.3%.” for “solutions.”
as §3
The FST protocol was carried out as described in previous literature. […] The time the rat’s immobility duration in the last five minutes of their six-minute swim in the bucket was recorded. […]

[4] = tested on: IL-1β; experiment: IL-1β level in hippocampus of CUMS rats, ELISA; details: after 5 weeks of therapy, HFPE, HFFE 25 mg/kg, fluoxetine 10 mg/kg
Procedure: as §1, §2, §4

[5] = Body weight growth rate of CUMS rats; details: 5 weeks, HFPE, HFFE 25 mg/kg, fluoxetine 10 mg/kg, gastric gavage
Procedure: as §1
as §2, with “solutions. All of the medications were administered through gastric gavage at a volume of 3 mL/kg of body weight and dissolved in sodium carboxymethylcellulose (CMC-Na) at a concentration of 0.3%. Days 76–79, 80, and 81 after the final dosage of the medication, respectively, saw the completion of the SPT, OFT, and FST.” for “solutions.”
as §3

[6] = tested on: IL-6; experiment: IL-6 level in hippocampus of CUMS rats, ELISA; details: after 5 weeks of therapy, HFPE, HFFE 25 mg/kg, fluoxetine 10 mg/kg
Procedure: as §1, §2, §4

[7] = tested on: CUMS rats; experiment: Open-field test (OFT) in CUMS rats; details: 5 min test, HFPE, HFFE 25 mg/kg, fluoxetine 10 mg/kg, compared with model group
Procedure: as §1, §2, §3
To assess the effects of HFPE and HFFE on exploratory behavior of rats administered CUMS, OFT carried out in the same manner as literature. Each rat was placed in its own square in the center of a black box that measured 100 cm × 100 cm × 40 cm. […] Both the crossing score and the rearing score for each animal were recorded. […]

CNCCC(Oc1ccc(C(F)(F)F)cc1)c1ccccc1 (stereo not shown) [fluoxetine]
sucrose preference [1]: 82.40%
TNF-α level in hippocampus [2]: obviously reduced
FST immobility time [3]: reduced immobility
IL-1β level in hippocampus [4]: obviously reduced
growth rate of body weight [5]: alleviate the reduction in body weight
IL-6 level in hippocampus [6]: obviously reduced
OFT rearing score (exploratory activity) [7]: improved the rearing score
